{"source": "patent US20260070945A1", "about": "“MACROCYCLIC IMMUNOMODULATORS” (Bristol-Myers Squibb Company, priority 2022, published 2026)", "note": "Where a SMILES comes first, the peptide text is derived from it. Bridges are numbered along the chain shown (N, C = ends). [ ]: non-standard residue; d: D form. The star is where a group is joined. ξ: configuration not given here. Phe(3-CF3) = N[C@@H](Cc1cccc(C(F)(F)F)c1)C(=O)O; Phe(4-COOH) = N[C@@H](Cc1ccc(C(=O)O)cc1)C(=O)O; Bip = N[C@@H](Cc1ccc(-c2ccccc2)cc1)C(=O)O; Phe(3-CN) = N#Cc1cccc(C[C@H](N)C(=O)O)c1; Phe(3-Me) = Cc1cccc(C[C@H](N)C(=O)O)c1; NH(CH2)12COOH = O=C(O)CCCCCCCCCCCCN*; Val(3-OH) = CC(C)(O)[C@H](N)C(=O)O; hArg = N=C(N)NCCCC[C@H](N)C(=O)O; 4Pal = N[C@@H](Cc1ccncc1)C(=O)O; Cha = N[C@@H](CC1CCCCC1)C(=O)O; Cit = NC(=O)NCCC[C@H](N)C(=O)O; Ile(3ξ) = CCC(C)[C@H](N)C(=O)O; Thr(3ξ) = CC(O)[C@H](N)C(=O)O; Carboxymethyl = O=C(O)C*; NMeA = CN[C@@H](C)C(=O)O; Orn = NCCC[C@H](N)C(=O)O; Aun = NCCCCCCCCCCC(=O)O; Dab = NCC[C@H](N)C(=O)O; Dap = NC[C@H](N)C(=O)O; AEEA = NCCOCCOCC(=O)O; Ac3c = NC1(C(=O)O)CC1"}
{"target": "T1, PD-1/PD-L1 interaction (PE-labeled human PD-L1-Ig binding to Jurkat cell line over-expressing human PD-1) (Homo sapiens, UniProt Q15116)", "T1 construct": "expressed in transfected cells; host or cells: Jurkat", "T1 sequence (Q15116 25-288)": "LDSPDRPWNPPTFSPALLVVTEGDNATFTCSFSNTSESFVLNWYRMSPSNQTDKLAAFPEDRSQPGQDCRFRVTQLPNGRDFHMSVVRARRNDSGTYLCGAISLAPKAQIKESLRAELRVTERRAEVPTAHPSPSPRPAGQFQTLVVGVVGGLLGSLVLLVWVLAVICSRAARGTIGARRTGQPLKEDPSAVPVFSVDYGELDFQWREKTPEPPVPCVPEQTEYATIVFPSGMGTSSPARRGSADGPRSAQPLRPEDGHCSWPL", "test": "Jurkat-PD-1 Cell Binding High-Content Screening Assay (CBA)", "conditions": "Jurkat-hPD-1 cells, PE-labeled PD-L1-Ig 20 nM final; read-out: Jurkat HPD1 PDL1 IC50", "procedure,_shortened": "(§1)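 Compound is added first to the PD-1-expressing Jurkat cells and held 2 h at 37 °C in serum-containing DMEM. The fluorescent PD-L1 fusion follows at 20 nM final for 1 h. Fixed, Hoechst-stained cells are then imaged for bound label.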", "units": {"IC50": "µM"}}
{"molecule": "CC(C)C[C@@H]1NC(=O)[C@H](Cc2c[nH]c3ccccc23)NC(=O)[C@H](CC(=O)O)NC(=O)[C@H](Cc2ccc(C(=O)O)cc2)NC(=O)[C@H](Cc2ccc(OCC(=O)O)cc2)NC(=O)CSC[C@@H](C(=O)NCC(=O)N[C@@H](CC(=O)O)C(=O)NCCCCCCCCCCC(=O)O)NC(=O)[C@H](CO)NC(=O)[C@H](C(C)C)NC(=O)[C@H](CC2CCCCC2)NC(=O)[C@H](CCN)NC(=O)[C@@H](CC(C)C)NC(=O)[C@H](C)N(C)C(=O)[C@H](C(C)C)NC(=O)[C@H](Cc2ccc(-c3ccccc3)cc2)NC1=O", "note": "[Example 1041] ({CH2CO}-Y(Carboxymethyl)[Phe(4-COOH)]DWL[Bip]V[NMeA][dL][Dab][Cha]VSCGD[Aun]-OH; thioether N-14)", "IC50": 0.0138}
{"molecule": "CCC(C)[C@@H]1NC(=O)[C@H](Cc2ccc(-c3ccccc3)cc2)NC(=O)[C@H](CC(C)C)NC(=O)[C@H](Cc2cccc(C)c2)NC(=O)[C@H](CC(=O)O)NC(=O)[C@H](Cc2ccc(O)cc2)NC(=O)[C@H](Cc2ccncc2)NC(=O)CSC[C@@H](C(=O)N[C@@H](CN)C(=O)NCCCCCCCCCCC(=O)O)NC(=O)[C@H](CCCN)NC(=O)[C@H](C(C)C)NC(=O)[C@H](CC(C)C)NC(=O)[C@H](CCN)NC(=O)[C@@H](C)NC(=O)[C@H](C)N(C)C1=O", "note": "(stereo partly drawn) [Example 2202] ({CH2CO}-[4Pal]YD[Phe(3-Me)]L[Bip][Ile(3ξ)][NMeA][dA][Dab]LV[Orn]C[Dap][Aun]-OH; thioether N-14)", "IC50": 0.0313}
{"molecule": "CCC(C)[C@@H]1NC(=O)[C@H](Cc2ccc(-c3ccccc3)cc2)NC(=O)[C@H](CC(C)C)NC(=O)[C@H](Cc2c[nH]c3ccccc23)NC(=O)[C@H](CC(=O)O)NC(=O)[C@H](Cc2ccc(OCC(=O)O)cc2)NC(=O)[C@H](Cc2ccc(OCC(=O)O)cc2)NC(=O)CSC[C@@H](C(=O)N[C@@H](CCN)C(=O)NCCOCCOCC(=O)NCCCCCCCCCCC(=O)O)NC(=O)[C@H](CO)NC(=O)[C@H](C(C)C)NC(=O)[C@H](CC(C)C)NC(=O)[C@H](CC(N)=O)NC(=O)[C@@H](CC(C)C)NC(=O)[C@H](C)N(C)C1=O", "note": "(stereo partly drawn) [Example 2038] ({CH2CO}-Y(Carboxymethyl)Y(Carboxymethyl)DWL[Bip][Ile(3ξ)][NMeA][dL]NLVSC[Dab][AEEA][Aun]-OH; thioether N-14)", "IC50": 0.0296}
{"molecule": "CC(C)C[C@H]1NC(=O)[C@H](C)N(C)C(=O)[C@H](Cc2ccc(OCC(=O)O)cc2)NC(=O)[C@H](Cc2ccc(-c3ccccc3)cc2)NC(=O)[C@H](Cc2ccc(C(=O)O)cc2)NC(=O)[C@H](Cc2cccc(C#N)c2)NC(=O)[C@H](CC(=O)O)NC(=O)[C@H](Cc2ccc(OCC(=O)O)cc2)NC(=O)[C@H]([C@@H](C)O)NC(=O)CSC[C@@H](C(=O)N[C@@H](CCN)C(=O)NCCCCCCCCCCC(=O)O)NC(=O)[C@H]([C@@H](C)O)NC(=O)[C@H](C(C)C)NC(=O)[C@H](CC2CCCCC2)NC(=O)[C@H](CCN)NC1=O", "note": "[Example 1233] ({CH2CO}-TY(Carboxymethyl)D[Phe(3-CN)][Phe(4-COOH)][Bip]Y(Carboxymethyl)[NMeA][dL][Dab][Cha]VTC[Dab][Aun]-OH; thioether N-14)", "IC50": 0.0667}
{"molecule": "CCC(C)[C@@H]1NC(=O)[C@H](Cc2ccc(-c3ccccc3)cc2)NC(=O)[C@H](C(C)C)NC(=O)[C@H](Cc2c[nH]c3ccccc23)NC(=O)[C@H](CC(=O)O)NC(=O)[C@H](Cc2ccc(OCC(=O)O)cc2)NC(=O)[C@H](C(C)O)NC(=O)CSC[C@@H](C(=O)N[C@H](CC(N)=O)C(=O)NCCOCCOCC(=O)NCCCCCCCCCCC(=O)O)NC(=O)[C@H](CO)NC(=O)[C@H](C(C)C)NC(=O)[C@H](CC2CCCCC2)NC(=O)[C@H](CCN)NC(=O)[C@@H](CC(C)C)NC(=O)[C@H](C)N(C)C1=O", "note": "(stereo partly drawn) [Example 2031] ({CH2CO}-[Thr(3ξ)]Y(Carboxymethyl)DWV[Bip][Ile(3ξ)][NMeA][dL][Dab][Cha]VSC[dN][AEEA][Aun]-OH; thioether N-14)", "IC50": 0.0094}
{"molecule": "CC(C)C[C@@H]1NC(=O)[C@H](Cc2c[nH]c3ccccc23)NC(=O)[C@H](CC(=O)O)NC(=O)[C@H](Cc2ccc(OCC(=O)O)cc2)NC(=O)[C@H](CCCCNC(=N)N)NC(=O)CSC[C@@H](C(=O)NCC(=O)NCCOCCOCC(=O)N[C@@H](CCN)C(=O)NCCCCCCCCCCC(=O)O)NC(=O)[C@H](CCCNC(N)=O)NC(=O)[C@H](C(C)C)NC(=O)[C@H](CC2CCCCC2)NC(=O)[C@H](CCN)NC(=O)[C@@H](CC(C)C)NC(=O)[C@H](C)N(C)C(=O)[C@H](C(C)C)NC(=O)[C@H](Cc2ccc(-c3ccccc3)cc2)NC1=O", "note": "[Example 2179] ({CH2CO}-[hArg]Y(Carboxymethyl)DWL[Bip]V[NMeA][dL][Dab][Cha]V[Cit]CG[AEEA][Dab][Aun]-OH; thioether N-14)", "IC50": 0.0112}
{"molecule": "Cc1cccc(C[C@@H]2NC(=O)[C@H](CC(=O)O)NC(=O)[C@H](Cc3ccc(OCC(=O)O)cc3)NC(=O)[C@H](Cc3ccc(OCC(=O)O)cc3)NC(=O)CSC[C@@H](C(=O)NC3(C(=O)NCCOCCOCC(=O)NCCCCCCCCCCC(=O)O)CC3)NC(=O)[C@H](CCCNC(=N)N)NC(=O)[C@H](C(C)C)NC(=O)[C@H](CC3CCCCC3)NC(=O)[C@H](CCN)NC(=O)[C@@H](CC(C)C)NC(=O)[C@H](C)N(C)C(=O)[C@H](Cc3ccc(O)cc3)NC(=O)[C@H](Cc3ccc(-c4ccccc4)cc3)NC(=O)[C@H](Cc3ccc(O)cc3)NC2=O)c1", "note": "[Example 1253] ({CH2CO}-Y(Carboxymethyl)Y(Carboxymethyl)D[Phe(3-Me)]Y[Bip]Y[NMeA][dL][Dab][Cha]VRC[Ac3c][AEEA][Aun]-OH; thioether N-14)", "IC50": 0.0166}
{"molecule": "CC(C)C[C@@H]1NC(=O)[C@H](Cc2c[nH]c3ccccc23)NC(=O)[C@H](CC(=O)O)NC(=O)[C@H](Cc2ccc(C(=O)O)cc2)NC(=O)[C@H](Cc2ccc(OCC(=O)O)cc2)NC(=O)CSC[C@@H](C(=O)N[C@@H](CCCN)C(=O)NCCOCCOCC(=O)NCCCCCCCCCCC(=O)O)NC(=O)[C@H](CCN)NC(=O)[C@H](C(C)C)NC(=O)[C@H](CC2CCCCC2)NC(=O)[C@H](CCN)NC(=O)[C@@H](CC(C)C)NC(=O)[C@H](C)N(C)C(=O)[C@H](C(C)C)NC(=O)[C@H](Cc2ccc(-c3ccccc3)cc2)NC1=O", "note": "[Example 2150] ({CH2CO}-Y(Carboxymethyl)[Phe(4-COOH)]DWL[Bip]V[NMeA][dL][Dab][Cha]V[Dab]C[Orn][AEEA][Aun]-OH; thioether N-14)", "IC50": 0.0141}
{"molecule": "COC[C@@H]1NC(=O)CSC[C@@H](C(=O)N[C@@H](CCN)C(=O)NCCCCCCCCCCCCC(=O)O)NC(=O)[C@H](CC(=O)O)NC(=O)[C@H](C(C)(C)O)NC(=O)[C@H](CC2CCCCC2)NC(=O)[C@H](CCN)NC(=O)[C@@H](CC(C)C)NC(=O)[C@H](C)N(C)C(=O)[C@H](CCC(N)=O)NC(=O)[C@H](Cc2ccc(-c3ccccc3)cc2)NC(=O)[C@H](Cc2ccc(C(=O)O)cc2)NC(=O)[C@H](Cc2cccc(C(F)(F)F)c2)NC(=O)[C@H](CC(=O)O)NC(=O)[C@H](Cc2ccc(OCC(=O)O)cc2)NC1=O", "note": "[Example 1134] ({CH2CO}-S(Me)Y(Carboxymethyl)D[Phe(3-CF3)][Phe(4-COOH)][Bip]Q[NMeA][dL][Dab][Cha][Val(3-OH)]DC[Dab]-{NH(CH2)12COOH}; thioether N-14)", "IC50": 0.0153}
{"target": "T1, PD-1/PD-L1 interaction (PE-labeled human PD-L1-Ig binding to Jurkat cell line over-expressing human PD-1)", "test": "Jurkat-PD-1 Cell Binding High-Content Screening Assay (CBA)", "conditions": "PE-labeled PD-L1-Ig 20 nM final, Jurkat-hPD-1 cells; read-out: Jurkat HPD1 PDL1 IC50", "procedure,_shortened": "as §1", "units": {"IC50": "µM"}}
{"molecule": "Cc1cccc(C[C@@H]2NC(=O)[C@H](CC(=O)O)NC(=O)[C@H](Cc3ccc(C(=O)O)cc3)NC(=O)[C@H](CCN)NC(=O)CSC[C@@H](C(=O)N[C@@H](CCN)C(=O)NCCOCCOCC(=O)NCCOCCOCC(=O)NCCCCCCCCCCC(=O)O)NC(=O)[C@H](CCC(=O)O)NC(=O)[C@H](C(C)(C)O)NC(=O)[C@H](CC3CCCCC3)NC(=O)[C@H](CCN)NC(=O)[C@@H](CC(C)C)NC(=O)[C@H](C)N(C)C(=O)[C@H](Cc3ccc(C(=O)O)cc3)NC(=O)[C@H](Cc3ccc(-c4ccccc4)cc3)NC(=O)[C@H](Cc3ccc(C(=O)O)cc3)NC2=O)c1", "note": "[Example 2519] ({CH2CO}-[Dab][Phe(4-COOH)]D[Phe(3-Me)][Phe(4-COOH)][Bip][Phe(4-COOH)][NMeA][dL][Dab][Cha][Val(3-OH)]EC[Dab][AEEA][AEEA][Aun]-OH; thioether N-14)", "IC50": 0.0131}
{"molecule": "Cc1cccc(C[C@@H]2NC(=O)[C@H](CC(=O)O)NC(=O)[C@H](Cc3ccc(C(=O)O)cc3)NC(=O)[C@H](CCN)NC(=O)CSC[C@@H](C(=O)N[C@@H](CCN)C(=O)NCCOCCOCC(=O)NCCCCCCCCCCC(=O)O)NC(=O)[C@H](CCC(=O)O)NC(=O)[C@H](C(C)C)NC(=O)[C@H](CC3CCCCC3)NC(=O)[C@H](CCN)NC(=O)[C@@H](CC(C)C)NC(=O)[C@H](C)N(C)C(=O)[C@H](Cc3ccc(C(=O)O)cc3)NC(=O)[C@H](Cc3ccc(-c4ccccc4)cc3)NC(=O)[C@H](Cc3ccc(C(=O)O)cc3)NC2=O)c1", "note": "[Example 2546] ({CH2CO}-[Dab][Phe(4-COOH)]D[Phe(3-Me)][Phe(4-COOH)][Bip][Phe(4-COOH)][NMeA][dL][Dab][Cha]VEC[Dab][AEEA][Aun]-OH; thioether N-14)", "IC50": 0.0117}
{"molecule": "Cc1cccc(C[C@@H]2NC(=O)[C@H](CC(=O)O)NC(=O)[C@H](Cc3ccc(OCC(=O)O)cc3)NC(=O)[C@H](Cc3ccncc3)NC(=O)CSC[C@@H](C(=O)N[C@@H](CCN)C(=O)NCCCCCCCCCCC(=O)O)NC(=O)[C@H](CO)NC(=O)[C@H](C(C)(C)O)NC(=O)[C@H](CC3CCCCC3)NC(=O)[C@H](Cc3c[nH]cn3)NC(=O)[C@@H](CC(C)C)NC(=O)[C@H](C)N(C)C(=O)[C@H](Cc3ccc(OCC(=O)O)cc3)NC(=O)[C@H](Cc3ccc(-c4ccccc4)cc3)NC(=O)[C@H](Cc3ccc(OCC(=O)O)cc3)NC2=O)c1", "note": "[Example 2466] ({CH2CO}-[4Pal]Y(Carboxymethyl)D[Phe(3-Me)]Y(Carboxymethyl)[Bip]Y(Carboxymethyl)[NMeA][dL]H[Cha][Val(3-OH)]SC[Dab][Aun]-OH; thioether N-14)", "IC50": 0.0548}
